From patent US10793522B2, “Sulfonamides as inhibitors of the uptake of extracellular citrate” (Boehringer Ingelheim International GmbH, priority 2016, dated 2020)

Target: T1, human GlyT2 (Homo sapiens, UniProt Q9Y345)
T1 construct: host or cells: HEK293 (HEK293-hGlyT2), cDNA sub-cloned into pcDNA3.1zeo
T1 sequence (Q9Y345 1-797): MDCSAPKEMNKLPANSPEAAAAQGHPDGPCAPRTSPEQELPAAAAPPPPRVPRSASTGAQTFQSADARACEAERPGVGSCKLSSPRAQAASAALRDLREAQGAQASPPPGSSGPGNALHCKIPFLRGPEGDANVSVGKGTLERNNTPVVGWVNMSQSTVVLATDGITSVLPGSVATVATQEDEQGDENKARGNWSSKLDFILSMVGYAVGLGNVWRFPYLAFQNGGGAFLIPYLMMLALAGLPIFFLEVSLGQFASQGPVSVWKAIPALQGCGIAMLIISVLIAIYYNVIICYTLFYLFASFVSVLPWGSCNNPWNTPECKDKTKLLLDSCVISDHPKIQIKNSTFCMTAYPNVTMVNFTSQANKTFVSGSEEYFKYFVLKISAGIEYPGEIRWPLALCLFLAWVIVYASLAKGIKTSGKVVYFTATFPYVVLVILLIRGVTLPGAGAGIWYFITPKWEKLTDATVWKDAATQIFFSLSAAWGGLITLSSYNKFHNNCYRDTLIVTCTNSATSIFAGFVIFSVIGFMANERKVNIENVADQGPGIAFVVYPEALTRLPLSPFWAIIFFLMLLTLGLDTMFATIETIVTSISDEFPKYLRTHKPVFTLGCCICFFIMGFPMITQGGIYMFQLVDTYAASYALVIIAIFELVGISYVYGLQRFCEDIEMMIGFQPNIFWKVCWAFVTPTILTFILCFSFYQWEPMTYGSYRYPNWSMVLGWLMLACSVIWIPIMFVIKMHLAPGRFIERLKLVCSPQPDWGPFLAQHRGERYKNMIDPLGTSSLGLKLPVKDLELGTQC
Experiment: Recombinant human GlyT2/3H-glycine uptake assay
Assay type: cell-based
Conditions: HEK293 cells over-expressing human GlyT2; Cytostar-T; 3H-glycine 100 nM; 2 hours
Excerpt: (6) Recombinant Human GlyT2/^3H-Glycine Uptake Assay
The human embryonic kidney 293 cell clone (HEK293-hGlyT2) over-expressing the human GlyT2 transporter was generated (the plasmid pCMV6-XL5-hGlyT2 containing the cDNA coding for the human GlyT2 transporter was obtained from Origene, the cDNA for GlyT2 was taken from this plasmid and sub-cloned into pcDNA3.1zeo from Invitrogen).
Human embryonic kidney 293 (HEK 293) cells are used that stably over-express the human GlyT2 […] which is responsible for the uptake of glycine into these cells.
The uptake of ^3H-glycine into the HEK 293 hGlyT2 cells is monitored using the Cytostar-T assay. This assay format is based on the imported radioactive glycine brought into proximity with the scintillant contained within the base of the plate by virtue of the biological processes within the cells. The radioactive decay is converted to a light signal based on the integration of the scintillation matrix into the assay plate.
Method: ^3H-Glycine Uptake Assay
The hGlyT2 over-expressing HEK 293 cells are cultivated in cell culture medium (DMEM+10% fetal calf serum+100 μg/mL Zeocin). For the assay, the medium of the 90% confluent cultures is removed and the cells are washed with DPBS. The cells are detached by the addition of 2 mL AccuMax and resuspended in 10 mL culture medium. The cell suspension is centrifuged at 1000 U/min for 5 min, the supernatant is removed and cells resuspended in expression medium (MEM (medium without glycine)+10% fetal calf serum) without glycine to 200,000 cells/mL and distributed into the Cytostar-T Scintillating 96-well Microplates (40,000 cells/well; 200 μl/well). The lid covered MTPs are then incubated for 24 hours at 37° C.; 5% CO2.
The following day, the cell plates are washed once with 200 μL HBSS/Ala buffer (HBSS 10× (+Ca, +Mg) with 5 mM Alanine adjusted to pH 7.4 with NaOH) following a 1 h incubation at 37° C.; 5% CO2, and subsequently 100 μL/well of HBSS/Ala containing 1.2× the concentration of compound in 1.2% DMSO (test range final: 100 μM-100 nM) incubated for 20 min at 37° C. Following the addition of 20 μL/well ^3H-glycine in HBSS/Ala (final ^3H-glycine concentration 100 nM) and an incubation for 2 hours at 37° C., the assay plate is placed into the Topcount NXT HTS and the signal is recorded.
The IC50 values of the compounds are calculated in IDBS XLfit by sigmoidal dose-response (variable slope).

Compound | IC50 [µM]
N#Cc1ccc(CNC(=O)C2CCN(S(=O)(=O)c3cc(Cl)cc(Cl)c3)CC2)cc1 [Example (I-1)] | > 100
O=C(NCc1ccccn1)C1CCN(S(=O)(=O)c2cc(Cl)cc(Cl)c2)CC1 [(I-11)] | > 100
O=C(NCc1ccc(Cl)cc1)C1CCN(S(=O)(=O)c2cc(Cl)cc(Cl)c2)CC1 [(I-5)] | > 100
Cc1cc(Br)cc(S(=O)(=O)N2CCC(C(=O)NCc3ccccn3)CC2)c1 [(I-61)] | > 100

Next, values leading:

IC50 [µM] | Compound
> 100 | O=C(NCc1ccccc1F)C1CCN(S(=O)(=O)c2cc(Cl)cc(Cl)c2)CC1 [(I-2)]
> 100 | Cc1ccc(CNC(=O)C2CCN(S(=O)(=O)c3cc(Cl)cc(Cl)c3)CC2)nc1 [(I-15)]
> 100 | CCOc1cc(Cl)cc(S(=O)(=O)N2CCC(C(=O)NCc3nccs3)CC2)c1 [(I-49)]
> 100 | O=C(NCc1ccc(F)cc1)C1CCN(S(=O)(=O)c2cc(Cl)cc(Cl)c2)CC1 [(I-10)]
> 100 | Cc1cnc(CNC(=O)C2CCN(S(=O)(=O)c3cc(Cl)cc(Cl)c3)CC2)s1 [(I-27)]
> 70 | O=C(NCc1ccc(F)cn1)C1CCN(S(=O)(=O)c2cc(Cl)cc(Cl)c2)CC1 [(I-20)]
